Measured values reported in patent US9861703B2 (Jinan Platinum Pharmatech Co. Ltd., priority 2013, dated 2018).
Like-named read-outs stand apart in the source and are kept apart here.

Columns and labels:
H22 tumor cells [1] = test: Activities of compounds in H22 tumor cells bearing Kunming mice models (Example 34); details: for Tumor growth inhibition (%) / Tumor weight: after two cycles
Description: (§2) The ascites was extracted from H22 tumour bearing mice with well growth, followed by adding sterile PBS to dilute the ascites to a concentration of 8.5×10^7 cells/mL. 100 uL of the cells solution was suck up by a 1 mL sterile injector to inoculate into right oxter of mice. After 3 days, the mice were weighted and randomized to several groups (almost 8 mice per group, and a bit more in control group). These mice were administrated a predetermined dosage by intravenous or oral gavage with two days off when having administrated for 5 days until two cycles one of which had 7 days. The body weight of mouse was recorded at the beginning and ending of every cycle,
(§3) After being administrated for two cycles, the mice were weighted and recorded, then sacrificed by cervical dislocation to get lung, liver and spleen weighted respectively.
(§4) Overall difference was calculated by the function of one-way analysis of variance (One-Way ANOVA) in Origin 7.5 software; and t-test was used for pair-comparison between drug administrated group and blank group, and the inhibitory ratio of drug in each group was calculated based on the following equation: inhibitory ratio (100%)=(mean tumor weight of control group−mean tumor weight of drug administrated group)/mean tumor weight of control group×100.

cell line Hela = test: MTT proliferation inhibition, Hela; format: cell-based; details: Homo sapiens, 48 h
Description: (§1) Human leukemia cell line K562, clear-cell ovarian carcinoma cell line ES-2, human prostate cancer cell line PC-3, human breast cancer cell line MCF-7, cell line Hela, human liver cancer cell line H7402 and human ovarian cancer cell line 3-AO were transferred into a culture flask and were cultured in a medium at 37° C. in a 5% CO2 and saturation humidity. One bottle of cells in logarithmic growth phase was picked out and was blew and beaten to be uniform with a pipette, then took some cell suspension solution to prepare blood counting plate smear to count cells under inverted microscope, and then adjusted the cell number to be 1×10^5/mL by adding some culture medium. Cells were seeded on a 96-well plate on which also drug tests performed. Blank control group, negative control group, positive control group and drug test group were established on the plate while the surrounding wells of the plate were not used (but filled with sterile PBS), wherein the blank control groups were prepared by addition of culture medium 150 μL per well, the negative control groups were prepared by addition of cell suspension solution 100 μL per well and culture medium 50 μL per well, the positive control groups were prepared by addition of cell suspension solution 100 μL per well and positive control drug solution 50 μL per well, the drug test groups were prepared by addition of cell suspension solution 100 μL per well and test compound solution 50 μL per well, and there were 5 different concentrations of drug in the positive control group and the drug test group respectively: 0.01, 0.1, 1, 10, 100 μmol·L^−1, each concentration was established with 3 parallel wells. After the drug was added, the 96-well plate was incubated for 48 h at 37° C. in a CO2 incubator of 5% CO2 and saturation humidity. Upon completion of the incubation, 20 μL MTT solution (concentration was 5 mg/mL) was added to each well and incubated for an additional 4 h, and after the 96-well plate was centrifuged at 2000 rpm for 30 min, medium of each well was suck out carefully and removed and 100 μL DMSO was added instead, followed by vibrating on a tablet shaker for 15 min to re-dissolve formazan crystals completely. OD value of each well was measured at 570 nm wavelength using an enzyme-linked immunosorbent assay reader to calculate cellular proliferation inhibitory ratio of each drug in different concentrations. And half-inhibitory concentration (IC50) was calculated using statistical software SPSS 16.0, wherein the cellular proliferation inhibitory ratio can be calculated as following equation: […]

H22 tumor cells [2] = details: Kunming, mouse, in vivo, 14 days
Description: as §2, §3, §4

[3] = system: human liver cancer cell line H7402; test: MTT proliferation inhibition, H7402; format: cell-based; details: Homo sapiens, H7402, 48 h
Description: as §1

liver cancer H22 [4] = test: Inhibition assay of intravenous administration against liver cancer H22 (Example 33)
Description: Extracted the ascites from H22 ascites tumour bearing mice, washed the ascites with sterile PBS for three times and then resuspended the cells with sterile PBS (cells counts: 3.75×10^7 cells/mL), inoculated it into right oxter of Kunming mice 100 uL per mouse.
The H22 tumor-bearing mice were randomized to 4 groups (7 mice per group) after being weighted. […] The size of tumor was measured by using a vernier calliper and weight of mouse by using an electronic balance at the beginning and ending of every cycle, then calculated their mean value. The mice were sacrificed after 13 days and the tumors were taken out and weighted. Tumor volume and inhibitory ratio were calculated as the following equation (L and W referred to length and width of tumor respectively): […]

[5] = system: human breast cancer cell line MCF-7; test: MTT proliferation inhibition, MCF-7; format: cell-based; details: Homo sapiens, MCF7, 48 h
Description: as §1

[6] = system: human leukemia cell line K562; test: MTT proliferation inhibition, K562; format: cell-based; details: Homo sapiens, K562, 48 h
Description: as §1

[7] = system: human prostate cancer cell line PC-3; test: MTT proliferation inhibition, PC-3; format: cell-based; details: Homo sapiens, 48 h
Description: as §1

[8] = system: human ovarian cancer cell line 3-AO; test: MTT proliferation inhibition, 3-AO; format: cell-based; details: Homo sapiens, 48 h
Description: as §1

liver cancer H22 [9] = test: Inhibition assay of oral administration against liver cancer H22 (Example 33); format: in vivo, Kunming mice; details: oral gavage, sacrificed after 13 days; for Tumor weight: two cycles (5 days on, 2 off); for inhibitory ratio (%): two cycles
Description: (1) the negative control: PBS; (2) Xeloda group: 100 mg/kg/d; (3) TFU group: 70 mg/kg/d; (4) BC-01 group: 100 mg/kg/d.
[formula] [formula] [formula] 2.2: Inhibition Assay of Intravenous Administration Against Liver Cancer H22

[10] = intravenous injection, 20 mg/kg/d (0.15 mmol/kg/d)
[11] = mouse, in vivo, iv, 20 mg/kg/day
[12] = tail intravenous injection, 20 mg/kg/d, sacrificed after 13 days
[13] = oral gavage, 108 mg/kg/d (0.3 mmol/kg/d)

Oc1ncc(F)c(O)n1 [Compound 5-FU, 2,4-dihydroxy-5-fluoropyrimidine, reference compound]
Tumor growth inhibition (%) (H22 tumor cells [1]; [10]): 10.41% | Tumor weight (H22 tumor cells [1]; [10]): 0.54 ± 0.06 g | Body weight(g) Beginning (H22 tumor cells [1]; [10]): 26.89 ± 2.06 g | Body weight(g) Ending (H22 tumor cells [1]; [10]): 25.51 ± 4.50 g | EC50 (cell line Hela): 133 µM | Number of mice alive (H22 tumor cells [2]; iv, 20 mg/kg/day): 4 | EC50 [3]: 385 µM | Number of mice alive (liver cancer H22 [4]; Kunming, mouse, in vivo, iv, 20 mg/kg/day, 13 days): 7 | Body weight(g) Beginning (liver cancer H22 [4]; [11]): 31.37 ± 4.05 g | Body weight(g) Ending (liver cancer H22 [4]; [11]): 31.92 ± 4.98 g | Tumor weight (liver cancer H22 [4]; [12]): 0.84 ± 0.19 g | inhibitory ratio (%) (liver cancer H22 [4]; [12]): 38.83% | EC50 [5]: 76.9 µM | EC50 [6]: 16 µM | EC50 [7]: 15.7 µM | EC50 [8]: 60.8 µM

CCCCCOC(=O)Nc1nc(=O)n([C@@H]2O[C@H](C)[C@@H](O)[C@H]2O)cc1F [Xeloda, capecitabine, reference compound]
Tumor growth inhibition (%) (H22 tumor cells [1]; [13]): 40.95% | Tumor weight (H22 tumor cells [1]; [13]): 0.35 ± 0.09 g | Body weight(g) Beginning (H22 tumor cells [1]; [13]): 33.00 ± 1.81 g | Body weight(g) Ending (H22 tumor cells [1]; [13]): 31.42 ± 3.56 g | Number of mice alive (H22 tumor cells [2]; po, 108 mg/kg/day): 7 | Tumor weight (liver cancer H22 [9]; 100 mg/kg/d): 0.6 g | inhibitory ratio (%) (liver cancer H22 [9]; 100 mg/kg/d): 24.53%

O=c1[nH]c(=O)n(C2CCCO2)cc1F (stereo not shown) [TFU]
Tumor weight (liver cancer H22 [9]; 70 mg/kg/d): 0.68 g | inhibitory ratio (%) (liver cancer H22 [9]; 70 mg/kg/d): 13.38%
